In patent US20040102622A1, “Modulation of hepatocyte growth factor receptor expression” (Isis Pharmaceuticals Inc., priority 2002, published 2004):
Strand notation (5' to 3'): a small letter for the sugar, then the base; units joined by * are phosphorothioate-linked, units joined directly phosphodiester-linked; [ ] holds rarer units or linkages, { } end groups; capitals alone tell only the bases. e = 2'-O-(2-methoxyethyl) (MOE); [5mC] = 5-methylcytosine; d = 2'-deoxy (DNA)

Test system: human hepatocyte growth factor receptor mRNA
Experiment: Inhibition of human hepatocyte growth factor receptor mRNA levels in T-24 cells, quantitative real-time PCR; also: test concentration or dose not given here
Conditions: averages from three experiments

First: 155097 (antisense e[5mC]*e[5mC]*eT*e[5mC]*eG*dG*dT*d[5mC]*dA*dG*dA*dA*dA*dT*dT*eG*eG*eG*eA*eA) [compound 155097]
Second: 155098 (antisense eT*e[5mC]*eA*eG*eA*dA*dG*dT*dG*dT*d[5mC]*d[5mC]*dT*dA*dT*eT*eA*eA*eA*eG) [compound 155098]
The “% INHIB (inhibition of human hepatocyte growth factor receptor mRNA levels)” value (shortened to “% INHIB”) of the first is higher: 53% for the first, 48% for the second.

Compared with “155099 (antisense e[5mC]*eA*eG*eG*eT*dT*dT*dT*dT*d[5mC]*d[5mC]*d[5mC]*dA*dA*d[5mC]*eA*e[5mC]*e[5mC]*eT*eG) [compound 155099]”, “155100 (antisense eA*eG*e[5mC]*eT*eG*dA*dT*dA*d[5mC]*dT*dT*d[5mC]*dA*dT*dA*eT*eT*e[5mC]*eA*e[5mC]) [compound 155100]” is lower in “% INHIB” value: 77% for the first, 0% for the second.

First: 155101 (antisense eT*eT*e[5mC]*eA*eG*d[5mC]*d[5mC]*dA*d[5mC]*dA*dG*dG*dA*dA*dA*eA*eA*e[5mC]*e[5mC]*e[5mC]) [compound 155101]
Second: 155102 (antisense eG*eA*eG*eA*eG*dG*d[5mC]*dA*dT*dT*dG*dA*d[5mC]*dT*dG*e[5mC]*eA*eG*eG*eA) [compound 155102]
The “% INHIB” value of the first is higher: 40% for the first, 35% for the second.

First: 155103 (antisense eT*eG*eG*eG*eA*dA*dG*d[5mC]*dT*dG*dA*dT*dA*d[5mC]*dT*eT*e[5mC]*eA*eT*eA) [compound 155103]
Second: 155104 (antisense eA*eT*eG*e[5mC]*eA*dA*dT*dG*dG*dA*dT*dG*dA*dT*d[5mC]*eT*eG*eG*eG*eA) [compound 155104]
The “% INHIB” value of the first is higher: 86% for the first, 84% for the second.

Going from “155105 (antisense eA*eT*e[5mC]*eA*eA*dA*dG*dT*dA*dT*dT*dT*dG*dG*dA*eA*eA*eG*eG*eA) [compound 155105]” to “155106 (antisense e[5mC]*eA*e[5mC]*eA*eA*d[5mC]*d[5mC]*dT*dG*d[5mC]*dA*dT*dG*dA*dA*eG*e[5mC]*eG*eA*e[5mC]) [compound 155106]”, the “% INHIB” value rises from 64% to 66%.

Compared with “155107 (antisense eT*e[5mC]*e[5mC]*eG*e[5mC]*dG*dG*dT*dG*dA*dA*dG*dT*dT*dG*eG*eG*eA*eA*eG) [compound 155107]”, “155108 (antisense eA*eT*eT*e[5mC]*eT*d[5mC]*dG*dG*dG*dA*d[5mC]*dA*d[5mC]*dT*dA*eA*e[5mC]*eT*eG*eA) [compound 155108]” is higher in “% INHIB” value: 42% for the first, 79% for the second.

First: 155109 (antisense eA*eG*e[5mC]*eT*e[5mC]*dG*d[5mC]*dT*dG*dT*dT*d[5mC]*dA*dA*dT*eT*eT*e[5mC]*eA*eG) [compound 155109]
Second: 155110 (antisense eT*e[5mC]*eG*eG*eG*dA*d[5mC]*dA*d[5mC]*dT*dA*dA*d[5mC]*dT*dG*eA*eA*eT*eT*e[5mC]) [compound 155110]
The “% INHIB” value of the first is higher: 80% for the first, 79% for the second.

First: 155111 (antisense eG*eT*eT*e[5mC]*eG*dG*d[5mC]*dA*dG*dA*dA*dT*d[5mC]*dT*dG*eG*e[5mC]*eT*eT*eG) [compound 155111]
Second: 155112 (antisense eT*eA*eG*eG*eA*dG*dT*d[5mC]*dT*dT*d[5mC]*dT*d[5mC]*d[5mC]*d[5mC]*eT*eT*eG*e[5mC]*eA) [compound 155112]
The “% INHIB” value of the first is higher: 86% for the first, 81% for the second.

First: 155113 (antisense e[5mC]*eT*eA*eA*eT*dG*dA*dG*dT*dT*dG*dA*dT*d[5mC]*dA*eT*e[5mC]*eA*eT*eA) [compound 155113]
Second: 155114 (antisense eA*eA*eT*eT*eG*dT*dT*dG*d[5mC]*dT*dT*dT*d[5mC]*dA*dA*eA*eG*eG*e[5mC]*eA) [compound 155114]
The “% INHIB” value of the first is lower: 83% for the first, 94% for the second.

Compared with “155115 (antisense eA*eG*eT*eT*e[5mC]*d[5mC]*dT*dT*d[5mC]*d[5mC]*dT*dG*d[5mC]*dT*dT*e[5mC]*eA*eT*eG*e[5mC]) [compound 155115]”, “155116 (antisense eA*eA*eA*eT*e[5mC]*dT*dT*dT*d[5mC]*dA*dT*dG*dA*dT*dG*eA*eT*eT*e[5mC]*e[5mC]) [compound 155116]” is lower in “% INHIB” value: 89% for the first, 54% for the second.

Compared with “155117 (antisense eG*eT*eA*eG*eA*dT*dT*dG*d[5mC]*dA*dG*dG*d[5mC]*dA*dG*eA*e[5mC]*eA*eG*eA) [compound 155117]”, “155118 (antisense e[5mC]*eA*eT*e[5mC]*e[5mC]*dA*dG*d[5mC]*dA*dT*dA*d[5mC]*dA*dG*dT*eT*eT*e[5mC]*eT*eT) [compound 155118]” is lower in “% INHIB” value: 75% for the first, 55% for the second.

First: 155119 (antisense eA*eA*eG*eT*eA*dT*dA*dT*dT*dA*dA*dA*d[5mC]*dA*d[5mC]*eT*eT*e[5mC]*e[5mC]*eT) [compound 155119]
Second: 155120 (antisense eG*eT*eG*eT*e[5mC]*d[5mC]*dT*dA*dT*dT*dA*dA*dA*dG*d[5mC]*eA*eG*eT*eG*e[5mC]) [compound 155120]
The “% INHIB” value of the first is higher: 92% for the first, 90% for the second.

Going from “155121 (antisense eT*eG*eA*eA*eA*dG*dG*dA*d[5mC]*dT*dT*dT*dG*dG*d[5mC]*eT*e[5mC]*e[5mC]*e[5mC]*eA) [compound 155121]” to “155122 (antisense eA*eA*eG*e[5mC]*e[5mC]*dT*dA*dT*d[5mC]*d[5mC]*dA*dA*dA*dT*dG*eA*eG*eG*eA*eG) [compound 155122]”, the “% INHIB” value falls from 79% to 69%.

Compared with “155123 (antisense eG*e[5mC]*eA*eA*eA*dG*d[5mC]*dT*dG*dT*dG*dG*dT*dA*dA*eA*e[5mC]*eT*e[5mC]*eT) [compound 155123]”, “155124 (antisense eT*eA*eT*eG*eA*dT*dG*dT*d[5mC]*dT*d[5mC]*d[5mC]*d[5mC]*dA*dG*eA*eA*eG*eG*eA) [compound 155124]” is lower in “% INHIB” value: 91% for the first, 53% for the second.

Going from “155125 (antisense eG*eG*eA*eA*eA*d[5mC]*dT*dG*dA*dT*d[5mC]*dT*dT*d[5mC]*dT*eG*eG*eA*eA*eA) [compound 155125]” to “155126 (antisense e[5mC]*eT*eG*eT*eG*d[5mC]*dA*dT*dT*dT*d[5mC]*dA*dA*dT*dG*eT*eA*eT*eT*e[5mC]) [compound 155126]”, the “% INHIB” value rises from 52% to 68%.

First: 155127 (antisense eG*eA*eT*e[5mC]*eT*dG*dG*dT*dT*dG*dA*dA*d[5mC]*dT*dA*eT*eT*eA*e[5mC]*eT) [compound 155127]
Second: 155128 (antisense eA*e[5mC]*eT*eG*eT*dG*dA*dA*dT*dT*dT*dT*dT*d[5mC]*dA*eT*e[5mC]*e[5mC]*eA*eG) [compound 155128]
The “% INHIB” value of the first is higher: 84% for the first, 83% for the second.

First: 155129 (antisense eG*eA*eT*eT*eG*dG*dG*dT*d[5mC]*d[5mC]*dG*dT*dA*dA*dA*eA*eA*eT*eG*e[5mC]) [compound 155129]
Second: 155130 (antisense eT*e[5mC]*eT*e[5mC]*eT*dG*dA*dA*d[5mC]*dT*d[5mC]*dA*dG*dG*dT*eA*eA*eA*eA*e[5mC]) [compound 155130]
The “% INHIB” value of the first is lower: 59% for the first, 83% for the second.

First: 155131 (antisense e[5mC]*eA*eA*eT*eT*dT*dG*dG*d[5mC]*dA*dA*dG*dG*dA*dG*e[5mC]*eA*eA*eA*eG) [compound 155131]
Second: 155132 (antisense eG*eA*eT*eT*e[5mC]*d[5mC]*d[5mC]*dT*d[5mC]*dG*dG*dT*d[5mC]*dA*dG*eA*eA*eA*eT*eT) [compound 155132]
The “% INHIB” value of the first is lower: 0% for the first, 39% for the second.

First: 155133 (antisense eA*eA*eA*e[5mC]*e[5mC]*dA*dT*dT*dT*d[5mC]*dT*dG*dT*dA*dG*eT*eT*eG*eG*eG) [compound 155133]
Second: 209521 (antisense eG*eG*eA*eA*e[5mC]*d[5mC]*dA*dG*dT*dG*dG*dA*dG*dA*dA*eG*eT*e[5mC]*eA*eG) [compound 209521]
The “% INHIB” value of the first is higher: 68% for the first, 58% for the second.

Going from “209522 (antisense eA*eG*eA*eG*eG*dT*dT*dT*dA*dT*d[5mC]*dT*dT*dT*d[5mC]*eG*eG*eT*eG*e[5mC]) [compound 209522]” to “209523 (antisense eG*eG*eG*e[5mC]*e[5mC]*dT*dT*d[5mC]*dA*dT*dT*dA*dT*dG*dA*eG*eA*eG*eG*eT) [compound 209523]”, the “% INHIB” value rises from 73% to 84%.

Going from “209524 (antisense e[5mC]*eT*e[5mC]*eA*eT*dG*dT*dA*dG*dA*dA*dT*dG*dA*d[5mC]*eA*eT*eT*e[5mC]*eT) [compound 209524]” to “209525 (antisense e[5mC]*eT*eG*eG*eT*d[5mC]*d[5mC]*dG*dT*d[5mC]*dA*dA*dA*dA*dA*e[5mC]*eA*eT*eA*eA) [compound 209525]”, the “% INHIB” value falls from 95% to 89%.

Compared with “209526 (antisense eT*eT*eG*eA*eT*dA*dG*dG*dG*dA*dA*dT*dG*d[5mC]*dA*e[5mC]*eA*e[5mC]*eA*eT) [compound 209526]”, “209527 (antisense e[5mC]*eG*e[5mC]*eT*eT*d[5mC]*dA*d[5mC]*dA*dG*d[5mC]*d[5mC]*dT*dG*dA*eT*eG*eA*eA*eT) [compound 209527]” is lower in “% INHIB” value: 93% for the first, 81% for the second.

“209528 (antisense eT*eT*eG*eG*eG*dA*dA*dA*dA*d[5mC]*d[5mC]*dT*dT*dG*dT*eA*eG*eA*eT*eT) [compound 209528]” was tested, and the “% INHIB” value was 42%.
